Test systems include 786-0 renal; A498 renal; CCRF-CEM leukemia; COLO 205 colon; HT29 colon; KM12 colon; SK-MEL-2 melanoma; SK-MEL-5 melanoma; UACC-62 melanoma; HS 578T breast; MDA-MB-435; NCI/ADR-RES ovarian.
Common to all, as to assay: inhibition of tumour cell growth, NCI panel, 48 h

TGI data for 14 compounds are collected here from PubChem BioAssay (NCI).

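Each compound was tested at five concentrations against cells in 96-well plates for 48 hours. Definition used: TGI = concentration required for complete inhibition of growth.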

`CC(C)NC(C)Cc1ccccc1` (stereo not drawn): the TGI in the test on 786-0 renal, in the test on A498 renal, in the test with CCRF-CEM leukemia, in the test on COLO 205 colon, with HT29 colon and in the test on KM12 colon was more than 100 µM each time. The TGI in the test with SK-MEL-2 melanoma, in the test with SK-MEL-5 melanoma and in the test on UACC-62 melanoma was more than 100 µM throughout.

Turning to `Cc1ccc(N2C(=O)/C(=c3\s/c(=C(/N)O)c(=N)n3-c3ccccc3)SC2=S)cc1`, the TGI in the test with A498 renal, in the test on CCRF-CEM leukemia, with COLO 205 colon, in the test on HT29 colon, with KM12 colon and in the test with SK-MEL-5 melanoma was more than 100 µM in each case. Besides, the TGI with UACC-62 melanoma is more than 100 µM.

On to `Cc1cccc(C)c1NC(=S)/N=C/C1=C(O)c2ccccc2C1=O`, for which the TGI was more than 100 µM in the test with 786-0 renal; more than 100 µM in the test on CCRF-CEM leukemia; more than 40.4 µM in the test on COLO 205 colon; more than 100000 nM with HS 578T breast; more than 79.2 µM with HT29 colon; more than 100 µM with KM12 colon. Further, the TGI in the test with MDA-MB-435 is more than 80.1 µM; with NCI/ADR-RES ovarian it was more than 100 µM; in the test on SK-MEL-2 melanoma it was more than 83.3 µM; in the test with SK-MEL-5 melanoma, 29.3 µM; in the test with UACC-62 melanoma, more than 70.8 µM.

For `CCC12C=CCN3CC[C@]4(C(=C(C(=O)OC)[C@@H]1Nc1ccn(C5OC(COC(C)=O)C(OC(C)=O)C5OC(C)=O)c(=O)n1)Nc1ccccc14)C32` (stereo partly drawn), the TGI in the test with 786-0 renal is 8.9 µM; in the test with A498 renal it was 10.7 µM; in the test on CCRF-CEM leukemia it was 13.2 µM; with COLO 205 colon it was 8.11 µM; in the test with HT29 colon it was 8.4 µM; with KM12 colon it was 2.54 µM. Besides, the values for the TGI in the test on SK-MEL-2 melanoma, in the test on SK-MEL-5 melanoma and in the test with UACC-62 melanoma were 5.58 µM, 8.1 µM and 6.94 µM, respectively.

With `CCOc1ccc(N=Cc2cc(OC)c(OC)c(OC)c2)cc1`, the TGI in the test with 786-0 renal, in the test with A498 renal, in the test on CCRF-CEM leukemia, with COLO 205 colon, in the test on HT29 colon and in the test with KM12 colon was more than 100 µM throughout. Besides, the TGI in the test on SK-MEL-2 melanoma, with SK-MEL-5 melanoma and in the test on UACC-62 melanoma was more than 100 µM each time.

For `CC1=NN(C(=O)c2ccc(Cl)cc2)C(=O)/C1=C/c1cccc(O)c1`, the TGI with 786-0 renal, with A498 renal, in the test on CCRF-CEM leukemia, with COLO 205 colon, with HT29 colon and in the test with KM12 colon was more than 100 µM in each case. Further, the TGI in the test with SK-MEL-2 melanoma, in the test on SK-MEL-5 melanoma and in the test on UACC-62 melanoma was more than 100 µM each time.

Regarding `CC(C)CCNC(=O)c1ccc(CNC(=O)/C=C/c2ccc(-c3ccccc3[N+](=O)[O-])o2)cc1`, the TGI with 786-0 renal, in the test on CCRF-CEM leukemia, in the test on COLO 205 colon, with KM12 colon, with MDA-MB-435 and with NCI/ADR-RES ovarian was more than 100 µM throughout. The TGI in the test on SK-MEL-2 melanoma, in the test with SK-MEL-5 melanoma and in the test on UACC-62 melanoma was more than 100 µM in each case.

As to `CCN(CC)CC(C)(C)C(=O)/C=C/c1ccc(C)cc1`, the TGI with 786-0 renal is 23.2 µM; in the test on A498 renal, 15.5 µM; with CCRF-CEM leukemia, 19.2 µM; with HT29 colon it was 12.3 µM; in the test on KM12 colon, 19 µM; in the test with SK-MEL-2 melanoma it was 25.7 µM. The TGI in the test with SK-MEL-5 melanoma was 29.1 µM; in the test with UACC-62 melanoma, 31.8 µM.

As to `Nc1nc(=O)n(C2OC(CO)C(O)C2O)cc1F` (stereo not drawn), the TGI was more than 100 µM in the test on A498 renal; more than 43.8 µM in the test on CCRF-CEM leukemia; more than 100 µM with COLO 205 colon; more than 100 µM in the test on HT29 colon; more than 100 µM in the test on KM12 colon; more than 100 µM with NCI/ADR-RES ovarian. Moreover, the figures for the TGI with SK-MEL-2 melanoma, in the test on SK-MEL-5 melanoma and with UACC-62 melanoma were more than 100 µM, more than 100 µM and 5.3 µM, respectively.

Regarding `OCCOCCO[P+]1(OCCOCCO)n2c3ccc2C(c2ccccc2)=C2C=CC(=N2)C(c2ccccc2)=c2ccc(n21)=C(c1ccccc1)C1=NC(=C3c2ccccc2)C=C1`, the TGI in the test with 786-0 renal was 1.51 µM; in the test on A498 renal, more than 100 µM; in the test with CCRF-CEM leukemia it was 1.14 µM; with COLO 205 colon, 0.0998 µM; with HS 578T breast, 379 nM; in the test on HT29 colon, 0.358 µM. The TGI in the test with KM12 colon was 0.429 µM; in the test with NCI/ADR-RES ovarian it was more than 67.5 µM; in the test with SK-MEL-5 melanoma, 0.134 µM; with UACC-62 melanoma it was 0.633 µM.

For `CNC(=O)N(CCC#N)CCN(CCN(C(=O)NC)c1ccccc1)C(=O)NC`, the TGI in the test with 786-0 renal, with CCRF-CEM leukemia, in the test with COLO 205 colon, in the test on HT29 colon, in the test on KM12 colon and with MDA-MB-435 was more than 100 µM in each case. Moreover, the TGI in the test with NCI/ADR-RES ovarian, in the test on SK-MEL-2 melanoma, in the test with SK-MEL-5 melanoma and in the test with UACC-62 melanoma was more than 100 µM throughout.

With `CN1c2ccccc2C2c3c(O)ccc(O)c3C=C([N+](=O)[O-])C21` (stereo not drawn), the TGI is 2.13 µM in the test with 786-0 renal; 5.47 µM with A498 renal; more than 100 µM in the test with CCRF-CEM leukemia; 8.55 µM with COLO 205 colon; 0.568 µM in the test with HT29 colon; 1.82 µM in the test with KM12 colon. For the same compound, the TGI in the test with MDA-MB-435 was 0.366 µM; in the test on NCI/ADR-RES ovarian it was more than 20 µM; in the test with SK-MEL-2 melanoma it was 7.08 µM; in the test with SK-MEL-5 melanoma, 1.89 µM; in the test on UACC-62 melanoma, 2.66 µM.

As to `Cc1ccc2c(c1)NC(=O)C(N=[N+]=[N-])(c1ccccc1)C2=O` (stereo not drawn), the TGI in the test with 786-0 renal was more than 100 µM; in the test on A498 renal it was more than 100 µM; with CCRF-CEM leukemia, more than 100 µM; in the test on COLO 205 colon, 27.1 µM; with HT29 colon, 43.9 µM; in the test with KM12 colon, 40 µM. For the same compound, the TGI was determined as 36.2 µM in the test with SK-MEL-2 melanoma, 47.4 µM in the test on SK-MEL-5 melanoma and 61.3 µM in the test with UACC-62 melanoma.

In the case of `Cc1c2n(c3ccccc13)CC1C2N(C)OC1(C)C` (stereo not drawn), the TGI with 786-0 renal, in the test on CCRF-CEM leukemia, with COLO 205 colon, with HT29 colon, with KM12 colon and with SK-MEL-2 melanoma was more than 100 µM throughout. Also, the TGI in the test with SK-MEL-5 melanoma and in the test with UACC-62 melanoma was more than 100 µM in each case.
